# According to PMC7359024, “Synthesis, Structure–Activity Relationship, and Mechanistic Studies of Aminoquinazolinones Displaying Antimycobacterial Activity” (ACS Infectious Diseases, 2020):
# Where two headings read alike, the source gives them in different places.
# Key:
# in vitro = details: Chinese hamster
# Mtb H37Rv strain = assay: MIC90 determination in GASTE-Fe media (broth microdilution); format: cell-based, Mycobacterium tuberculosis; details: Mtb H37Rv, replicating conditions, GASTE-Fe media, read 14 days after incubation, read-out: MIC90 GASTE-Fe
# [1] = format: in vitro ADME; details: for Metabolic Stability H (% Rem.): human liver microsomes; for Metabolic Stability M (% Rem.): mouse liver microsomes; for Metabolic Stability R (% Rem.): rat liver microsomes
# Protocol: 3.2. Microsomal stability
# The metabolic stability assay was performed in duplicate in a 96-well micro titre plate. The test compounds (0.1 μM) were incubated individually in mouse, rat and pooled human liver microsomes ((final protein concentration of 0.4 mg/mL; XenoTech, Lenexa, KS ), suspended in 0.1M phosphate buffer (pH 7.4) at 37 °C for predetermined time points, in the presence and absence of the cofactor NADPH (1 mM). Reactions were quenched by adding ice cold acetonitrile containing internal standard (carbamazepine, 0.0236 µg/mL). T he samples were centrifuged and test compound in the supernatant were analysed by means of LC -MS/MS (Agilent Rapid Resolution HPLC, AB SCIEX 4500 MS ). The relative loss of parent compound over time was monitored and plots (concentration vs. time) were prepared per compound to determine the first order rate constant for compound depletion. This was in turn used to calculate half-life, in vitro intrinsic clearance and in vivo hepatic extraction ratio. Metabolite searches were not conducted during the metabolic stability assay. 5
# physchem = format: physicochemical; details: for solubility: kinetic solubility, pH 7.4, HPLC method
# Protocol: The kinetic solubility assay was performed using a miniaturised shake flask method. 10 mM stock solutions of each of the test compounds were used to prepare calibration standards (10-220μM) in DMSO. The same 10mM stock solutions were accurately dispensed in duplicate into 96-well plates and the DMSO dried down (MiVac GeneVac, 90 min, 37 °C). Thereafter, the samples were reconstituted (200 µM) in phosphate buffered saline (pH 7.4) and shaken (20 hours, 25 °C). The solutions were filtered and analysed by means of HPLC -DAD (Agilent 1200 Rapid Resolution HPLC with a diode array detector). […]
# [2] = Mycobacterium tuberculosis, H37RV, 336 h
Compound,IC50 (in vitro),MIC90 (Mtb H37Rv strain; [2]),Metabolic Stability H (% Rem.) [1],Metabolic Stability M (% Rem.) [1],Metabolic Stability R (% Rem.) [1],"solubility (physchem; 25 °C, pH 7.4, aqueous buffer)",solubility (physchem),"fold improvement in solubility (physchem; pH 7.4, relative to comparator analogue)",MIC90 (Mtb H37Rv strain)
Cc1ccc(S(C)(=O)=O)cc1-c1ccc2nc(N)n(-c3ccc(C(F)(F)F)cc3)c(=O)c2c1 [compound 7],> 100 µM,4.22 µM,65 % Rem.,90 % Rem.,86 % Rem.,53.3 µM,53 µM,10 fold,
Nc1nc2ccc(-c3cccc(S(=O)(=O)C4CC4)c3)cc2c(=O)n1-c1ccc(C(F)(F)F)cc1 [compound 8],0.021 µM,2.35 µM,85 % Rem.,97 % Rem.,98 % Rem.,66 µM,,,
NC(=O)c1cccc(-c2ccc3nc(N)n(-c4ccc(C(F)(F)F)cc4)c(=O)c3c2)c1 [compound 9],> 100 µM,< 0.244 µM,97/-/- % Rem.,,,< 5 µM,,,
CN(C)C(=O)c1cccc(-c2ccc3nc(N)n(-c4ccc(C(F)(F)F)cc4)c(=O)c3c2)c1 [compound 10],0.64 µM,2.15 µM,85 % Rem.,89 % Rem.,86 % Rem.,46 µM,,,
CNC(=O)c1cccc(-c2ccc3nc(N)n(-c4ccc(C(F)(F)F)cc4)c(=O)c3c2)c1 [compound 11],96.3 µM,0.78 µM,98 % Rem.,100 % Rem.,100 % Rem.,< 5 µM,,,
CN(C)CCNC(=O)c1cccc(-c2ccc3nc(N)n(-c4ccc(C(F)(F)F)cc4)c(=O)c3c2)c1 [compound 13],> 50 µM,0.82 µM,82 % Rem.,56 % Rem.,40 % Rem.,168 µM,,,
Nc1nc2ccc(-c3cccc(C(=O)NCCO)c3)cc2c(=O)n1-c1ccc(C(F)(F)F)cc1 [compound 14],> 50 µM,1.03 µM,81 % Rem.,90 % Rem.,83 % Rem.,192 µM,193 µM,,
"Nc1nc2ccc(-c3cccc(C(=O)NCCN4CCOCC4)c3)cc2c(=O)n1-c1ccc(C(F)(F)F)cc1 [compound 15, 3-(2-amino-4-oxo-3-(4-(trifluoromethyl)phenyl)-3,4-dihydroquinazolin-6-yl)-N-(2-morpholinoethyl)benzamide]",8.77 µM,1.45 µM,51 % Rem.,59 % Rem.,62 % Rem.,< 5 µM,,,
"Nc1nc2ccc(-c3cccc(C(=O)N4CCOCC4)c3)cc2c(=O)n1-c1ccc(C(F)(F)F)cc1 [compound 16, 2-Amino-6-(3-(morpholine-4-carbonyl)phenyl)-3-(4-(trifluoromethyl)phenyl)quinazolin-4(3H)-one]",> 50 µM,4.93 µM,71 % Rem.,78 % Rem.,77 % Rem.,56 µM,,,
"Nc1nc2ccc(-c3cccc(C(=O)N4CCSCC4)c3)cc2c(=O)n1-c1ccc(C(F)(F)F)cc1 [compound 18, 2-Amino-6-(3-(thiomorpholine-4-carbonyl)phenyl)-3-(4-(trifluoromethyl)phenyl)quinazolin-4(3H)-one]",> 50 µM,0.656 µM,8 % Rem.,22 % Rem.,23 % Rem.,46 µM,,,
CN1CCN(C(=O)c2cccc(-c3ccc4nc(N)n(-c5ccc(C(F)(F)F)cc5)c(=O)c4c3)c2)CC1 [compound 19],> 50 µM,1.57 µM,97 % Rem.,94 % Rem.,86 % Rem.,51 µM,,,
Nc1nc2ccc(-c3cccc(C(=O)O)c3)cc2c(=O)n1-c1ccc(C(F)(F)F)cc1 [compound 20],> 100 µM,112 µM,99 % Rem.,98 % Rem.,97 % Rem.,29 µM,,,
Nc1nc2ccc(-c3cncnc3)cc2c(=O)n1-c1ccc(C(F)(F)F)cc1 [compound 21],> 100 µM,10 µM,94/-/- % Rem.,,,40 µM,,,
Nc1nc2ccc(-c3cccnc3)cc2c(=O)n1-c1ccc(C(F)(F)F)cc1 [compound 22],> 100 µM,0.625 µM,68/-/- % Rem.,,,20 µM,,,
Cc1cncc(-c2ccc3nc(N)n(-c4ccc(C(F)(F)F)cc4)c(=O)c3c2)c1 [compound 23],> 100 µM,> 2 µM,87/-/- % Rem.,,,< 5 µM,,,2.5 µM
CN(C)c1cccc(-c2ccc3nc(N)n(-c4ccc(C(F)(F)F)cc4)c(=O)c3c2)c1 [compound 27],> 100 µM,2.5 µM,37/-/- % Rem.,,,20 µM,,,
Nc1nc2ccc(-c3cccc(C(F)(F)F)c3)cc2c(=O)n1-c1ccc(C(F)(F)F)cc1 [compound 28],> 100 µM,0.75 µM,88/-/- % Rem.,,,40 µM,,,
CS(=O)(=O)c1cccc(-c2ccc3c(=O)n(-c4ccc(C(F)(F)F)cc4)c(N)nc3c2)c1 [compound 30],> 50 µM,1.39 µM,99/99/99 % Rem.,99/99/99 % Rem.,99/99/99 % Rem.,< 5 µM,,,
